Assay [1] has as its target T1, human norepinephrine transporter (Homo sapiens, UniProt P23975).
T1 construct: host or cells: HEK-293
Kind of assay: hNET receptor binding ([125I]-RTI-55 radioligand binding). To be noted: membranes of HEK-293 cells transfected with human norepinephrine transporter, IC50 converted to Ki by Cheng-Prusoff, read-out: hNET (Ki). In a few lines: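 Membranes from HEK-293 cells transfected with human NET. Nonspecific binding defined with 10 μM desipramine, duplicates. IC50 by nonlinear regression, converted to Ki with Cheng-Prusoff.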

The target in assay [2] is T2, human seritonin transporter (Homo sapiens, UniProt P31645).
T2 construct: host or cells: HEK-293
T2 sequence (P31645 whole entry): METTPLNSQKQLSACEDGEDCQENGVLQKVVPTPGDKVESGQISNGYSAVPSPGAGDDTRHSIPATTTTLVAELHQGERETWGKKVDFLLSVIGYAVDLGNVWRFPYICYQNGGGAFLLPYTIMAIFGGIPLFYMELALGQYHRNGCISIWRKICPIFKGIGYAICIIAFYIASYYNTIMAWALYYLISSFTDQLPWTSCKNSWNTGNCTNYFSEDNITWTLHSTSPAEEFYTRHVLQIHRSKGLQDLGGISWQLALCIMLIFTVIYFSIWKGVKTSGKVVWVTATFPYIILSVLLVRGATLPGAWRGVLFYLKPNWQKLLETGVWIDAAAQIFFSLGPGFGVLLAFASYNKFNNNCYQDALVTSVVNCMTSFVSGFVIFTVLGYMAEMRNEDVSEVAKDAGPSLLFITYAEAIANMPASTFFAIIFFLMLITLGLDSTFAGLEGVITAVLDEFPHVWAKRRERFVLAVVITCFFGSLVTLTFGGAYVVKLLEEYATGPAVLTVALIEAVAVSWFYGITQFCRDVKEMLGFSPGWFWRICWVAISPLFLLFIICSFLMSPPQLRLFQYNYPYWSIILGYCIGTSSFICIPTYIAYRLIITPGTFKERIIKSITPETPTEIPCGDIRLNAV
Description: hSERT receptor binding ([125I]-RTI-55 radioligand binding). To be noted: membranes of HEK-293 cells transfected with human seritonin transporter, IC50 converted to Ki by Cheng-Prusoff, read-out: SERT (Ki).

T1 sequence (P23975 whole entry): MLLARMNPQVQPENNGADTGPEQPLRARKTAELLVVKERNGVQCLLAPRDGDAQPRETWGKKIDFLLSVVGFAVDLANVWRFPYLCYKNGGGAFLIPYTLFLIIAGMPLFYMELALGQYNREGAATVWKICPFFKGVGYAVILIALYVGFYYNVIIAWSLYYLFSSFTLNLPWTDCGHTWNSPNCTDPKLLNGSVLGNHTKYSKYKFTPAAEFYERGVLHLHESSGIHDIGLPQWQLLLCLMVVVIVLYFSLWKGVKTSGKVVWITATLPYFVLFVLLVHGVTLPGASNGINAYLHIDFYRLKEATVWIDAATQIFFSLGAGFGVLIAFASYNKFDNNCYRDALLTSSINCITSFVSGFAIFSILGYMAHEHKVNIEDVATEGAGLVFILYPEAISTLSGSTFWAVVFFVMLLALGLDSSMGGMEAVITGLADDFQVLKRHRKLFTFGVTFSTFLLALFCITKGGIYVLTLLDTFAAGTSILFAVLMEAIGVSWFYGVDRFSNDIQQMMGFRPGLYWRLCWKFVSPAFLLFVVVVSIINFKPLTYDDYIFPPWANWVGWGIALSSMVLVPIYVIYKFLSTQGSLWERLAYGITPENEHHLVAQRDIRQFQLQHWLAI

For orientation: Ki means the dissociation constant of the complex between target and ligand, obtained from inhibition or displacement. Take `CSc1ccccc1O[C@@H](c1ccccc1)[C@@H]1CNCCO1` [Example 53, (S)-2-[(S)-(2-Methylsulfanyl-phenoxy)-phenyl-methyl]-morpholine]: the Ki in assay [1] is 0.0059 µM; in assay [2], 0.259 µM.
Turning to `Fc1cccc(F)c1OC(Cc1ccccc1)[C@@H]1CNCCO1` (mixture of isomers) [Example 101, (2S)-2-[1-(2,6-difluorophenoxy)-2-phenylethyl]morpholine], the Ki in assay [1] was found to be 0.066 µM; in assay [2], 0.912 µM.
Taken in the same sequence, the figures for `CCOc1ccc(F)cc1OC(c1ccccc1)[C@@H]1CNCCO1` (stereo partly drawn) [Example 169, (2S)-2-[(2-ethoxy-5-fluorophenoxy)(phenyl)methyl]morpholine] were 0.006 µM and 2.98 µM.
For `Fc1cc(F)c(O[C@@H](c2ccccc2)[C@@H]2CNCCO2)c(C2CC2)c1` [Example 122, (2S)-2-[(S)-(2-cyclopropyl-4,6-difluorophenoxy)(phenyl)methyl]morpholine], in that order: 0.011 µM and 0.044 µM.
Taken in the same sequence, the figures for `CN(C)c1ccccc1O[C@@H](c1ccccc1)[C@@H]1CNCCO1` [Example 64, (2S,3S)-Dimethyl-[2-(morpholin-2-yl-phenyl-methoxy)-phenyl]-amine] were 0.119 µM and at least 10 µM.
Consider `c1ccc(Cc2ccccc2O[C@@H](c2ccccn2)[C@@H]2CNCCO2)cc1` [Example 128, (2S)-2-[(S)-(2-benzylphenoxy)(pyridin-2-yl)methyl]morpholine], for which the figures for the Ki in assay [1] and in assay [2] were 0.011 µM and 3.32 µM, respectively.
As for `Fc1cccc(Cl)c1O[C@@H](c1ccccc1)[C@@H]1CNCCO1` [Example 113, (2S)-2-[(S)-(2-chloro-6-fluorophenoxy)(phenyl)methyl]morpholine], the Ki worked out at 0.015 µM in assay [1] and 0.071 µM in assay [2].
As to `Fc1ccc(OC(c2ccccn2)[C@H]2CNCCO2)c(F)c1` (stereo partly drawn) [Example 87, (2R,3R)-2-[(2,4-Difluoro-phenoxy)-pyridin-2-yl-methyl]-morpholine], the Ki in assay [1] came out at 2.89 µM; in assay [2], 0.953 µM.
With `Fc1ccc(Oc2nccnc2OCC2CNCCO2)cc1` (stereo in doubt) [Example 78, (S)-2-[3-(4-Fluoro-phenoxy)-pyrazin-2-yloxymethyl]-morpholine], the inhibitory constant (Ki) in assay [1] is 7.97 µM; in assay [2], at least 10 µM.
Taken in the same sequence, the figures for `Clc1ccccc1-c1ccccc1OCC1CNCCO1` (stereo not shown) [Example 73, 2-(2′-Chloro-biphenyl-2-yloxymethyl)-morpholine] were 0.595 µM and at least 10 µM.
Turning to `Fc1cccc(F)c1O[C@@H](c1ccccc1)[C@@H]1CNCCO1` [Example 36, (S)-2-[(S)-(2,6-Difluoro-phenoxy)-phenyl-methyl]-morpholine], the figures for the inhibition constant Ki in assay [1] and in assay [2] were 0.0037 µM and 0.471 µM, respectively.
With `CCOc1ncccc1OC(CC(C)C)[C@@H]1CNCCO1` (stereo partly drawn) [Example 149, (2S)-2-{1-[(2-ethoxypyridin-3-yl)oxy]-3-methylbutyl}morpholine], the values for the Ki in assay [1] and in assay [2] were 0.009 µM and 2.31 µM, respectively.
Taken in the same sequence, the figures for `FCCCOc1ccccc1O[C@@H](c1ccccc1)[C@@H]1CNCCO1` [Example 161, (2S)-2-[(S)-[2-(3-fluoropropoxy)phenoxy](phenyl)methyl]morpholine] were 0.005 µM and 3.88 µM.
For `Fc1ccc(O[C@@H](c2ccccc2)[C@@H]2CNCCO2)c(F)c1` [Example 68, (S)-2-[(S)-(2,4-Difluoro-phenoxy)-phenyl-methyl]-morpholine], in that order: 0.019 µM and 0.66 µM.
For `Fc1ccc(Oc2ncccc2OC[C@H]2CNCCO2)cc1` [Example 89, (2R)-2-[2-(4-Fluoro-phenoxy)-pyridin-3-yloxymethyl]-morpholine], in that order: 4.11 µM and at least 10 µM.
`Brc1ncccc1O[C@@H](c1ccccc1)[C@@H]1CNCCO1` [Example 41, (S)-2-[(S)-(2-Bromo-pyridin-3-yloxy)-phenyl-methyl]-morpholine]: the Ki in assay [1] and in assay [2] was 0.017 µM each time.
With `C=Cc1ccccc1O[C@@H](c1ccccc1)[C@@H]1CNCCO1` [Example 5, (S)-2-[(S)-Phenyl-(2-vinyl-phenoxy)-methyl]-morpholine], the Ki is 0.013 µM in assay [1] and 1.18 µM in assay [2].
In the case of `Clc1ccc(-c2ccccc2O[C@@H](c2ccccc2)[C@@H]2CNCCO2)cc1` [Example 16, (S)-2-[((S)-4′-Chloro-biphenyl-2-yloxy)-phenyl-methyl]-morpholine], the Ki in assay [1] stood at 0.099 µM; in assay [2], 4.5 µM.
Taken in the same sequence, the figures for `c1ccc(Oc2ccccc2O[C@@H](c2ccccc2)[C@@H]2CNCCO2)cc1` [Example 14, (S)-2-[(S)-(2-Phenoxy-phenoxy)-phenyl-methyl]-morpholine] were 0.061 µM and at least 10 µM.
`Fc1ccc(Oc2ncccc2O[C@@H](c2ccccc2)[C@@H]2CNCCO2)cc1` [Example 65, (S)-2-{(S)-[2-(4-Fluoro-phenoxy)-pyridin-3-yloxy]-phenyl-methyl}-morpholine]: the results for the Ki in assay [1] and in assay [2] were 0.085 µM and 1.2 µM, respectively.
For the compound `Fc1cccc(F)c1OC(c1cc2ccccc2o1)[C@@H]1CNCCO1` (mixture of isomers) [Example 143, (2S)-2-[1-benzofuran-2-yl(2,6-difluorophenoxy)methyl]morpholine], the Ki worked out at 0.896 µM in assay [1] and 3.32 µM in assay [2].
On to `COc1cccc(F)c1OC(c1ccccc1)[C@@H]1CNCCO1` (stereo partly drawn) [Example 95, (2S)-2-[(2-fluoro-6-methoxyphenoxy)(phenyl)methyl]morpholine], for which the values for the Ki in assay [1] and in assay [2] were 0.003 µM and 3.41 µM, respectively.
Regarding `c1ccc([C@H](Oc2ccccc2C2CCCC2)[C@@H]2CNCCO2)cc1` [Example 55, (S)-2-[(S)-(2-Cyclopentyl-phenoxy)-phenyl-methyl]-morpholine], the Ki in assay [1] amounted to 0.012 µM; in assay [2], 2.24 µM.
Take `CCOc1ccccc1OC(c1nccs1)[C@@H]1CNCCO1` (stereo partly drawn) [Example 180, (2S)-2-[(2-ethoxyphenoxy)(1,3-thiazol-2-yl)methyl]morpholine]: the values for the Ki in assay [1] and in assay [2] were 0.009 µM and 8.23 µM, respectively.
For `CCCOc1cccc(F)c1O[C@@H](c1ccccc1)[C@@H]1CNCCO1` [Example 171, (2S)-2-[(S)-(2-fluoro-6-propoxyphenoxy)(phenyl)methyl]morpholine], in that order: 0.02 µM and 1.04 µM.
For `Fc1cccc(C2CC2)c1O[C@@H](c1ccccc1)C1CNCCO1` (stereo in doubt) [Example 184, (2S)-2-[(S)-(2-cyclopropyl-6-fluorophenoxy)(phenyl)methyl]morpholine], in that order: 0.006 µM and 0.46 µM.
On to `Fc1ccc(Cl)c(OC(c2ccccc2)[C@@H]2CNCCO2)c1` (stereo partly drawn) [Example 94, (2S)-2-[(2-chloro-5-fluorophenoxy)(phenyl)methyl]morpholine], for which the Ki was 0.008 µM in assay [1] and 0.811 µM in assay [2].
For the compound `Fc1cccc(F)c1O[C@@H](c1ccccn1)[C@@H]1CNCCO1` [Example 160, (2S)-2-[(S)-(2,6-difluorophenoxy)(pyridin-2-yl)methyl]morpholine], the inhibition constant Ki in assay [1] stood at 0.006 µM; in assay [2] it was 6.5 µM.
With `N#Cc1ccccc1O[C@@H](c1ccccn1)[C@@H]1CNCCO1` [Example 125, 2-[(S)-(2S)-morpholin-2-yl(pyridin-2-yl)methoxy]benzonitrile], the Ki is 0.011 µM in assay [1] and at least 10 µM in assay [2].
Regarding `CCOc1ncccc1O[C@@H](C)[C@@H]1CNCCO1` [Example 144, (2S)-2-{(1S)-1-[(2-ethoxypyridin-3-yl)oxy]ethyl}morpholine], the inhibitory constant (Ki) turned out to be 0.304 µM in assay [1] and 7.22 µM in assay [2].
As for `c1cnc(OC[C@H]2CNCCO2)c(OC[C@H]2CNCCO2)n1` [Example 200, (2R,2′R)-2,2′-[pyrazine-2,3-diylbis(oxymethylene)]dimorpholine], the Ki is 9.55 µM in assay [1] and at least 10 µM in assay [2].
Taken in the same sequence, the figures for `CCc1ncccc1O[C@@H](c1ccccc1)[C@@H]1CNCCO1` [Example 124, (2S)-2-[(S)-[(2-ethylpyridin-3-yl)oxy](phenyl)methyl]morpholine] were 0.03 µM and 0.346 µM.
With `COc1cccc(F)c1OC(c1cccnc1)[C@H]1CNCCO1` (mixture of isomers) [Example 31, (2R,3R) and (R)-2-[(S)-(2-Fluoro-6-methoxy-phenoxy)-pyridin-3-yl-methyl]-morpholine], the inhibitory constant (Ki) in assay [1] was found to be 0.085 µM; in assay [2], 0.348 µM.
Taken in the same sequence, the figures for `Cc1coc(C(Oc2ccccc2Br)[C@@H]2CNCCO2)n1` (stereo partly drawn) [Example 177, (2S)-2-[(2-bromophenoxy)(4-methyl-1,3-oxazol-2-yl)methyl]morpholine] were 0.007 µM and 1.96 µM.
Taken in the same sequence, the figures for `Fc1ccc(Oc2ncccc2OC[C@@H]2CNCCO2)cc1` [Example 32, (S)-2-[2-(4-Fluoro-phenoxy)-pyridin-3-yloxymethyl]-morpholine] were 0.036 µM and at least 10 µM.
In the case of `Cc1coc(C(Oc2ccccc2OC(F)(F)F)[C@@H]2CNCCO2)n1` (stereo partly drawn) [Example 174, (2S)-2-{(4-methyl-1,3-oxazol-2-yl)[2-(trifluoromethoxy)phenoxy]methyl}morpholine], the values for the Ki in assay [1] and in assay [2] were 0.018 µM and 7.52 µM, respectively.
Taken in the same sequence, the figures for `FC(F)Oc1ccccc1O[C@@H](c1ccccc1)[C@@H]1CNCCO1` [Example 57, (S)-2-[(S)-(2-Difluoromethoxy-phenoxy)-phenyl-methyl]-morpholine] were 0.024 µM and 0.094 µM.
For `Cc1ccccc1O[C@@H](c1ccccc1)[C@@H]1CNCCO1` [Example 49, (S)-2-((S)-Phenyl-o-tolyloxy-methyl)-morpholine], in that order: 0.0089 µM and 0.729 µM.
